Values joined by “and” are separate entries in the source; they are usually repeats but may differ in a detail not shown here. Identical values can stand only once. “Also recorded” adds a separate entry of the source.
Assays:
[1] = system: RT112 urinary bladder carcinoma; assay: Antitumor activity against s.c. RT112 tumors in nude mice; type: in vivo, female Hsd: Athymic Nude-nu mice; conditions: for Mean change of tumor volume / Final Tumor Volume: Clarke 1997 analysis table; for Final Tumor Volume: end of 14 days treatment, in mm³ (unit assumed)
Procedure: Animals: Experiments are performed in female Hsd: Athymic Nude-nu mice obtained from Harlan Cpb, Germany. Animals are from 8 to 14 weeks of age at treatment start and are housed under Optimized Hygienic Conditions in Makrolon type III cages (max. 10 animals per cage) with free access to food and water
Establishment of RT112 tumors: The RT112 human urinary bladder carcinoma cell line was initially derived from a patient with untreated primary urinary bladder carcinoma in 1973. RT112 cells are cultured as in Example 1. To establish tumors, RT112 cells suspended in Hanks' balanced salt solution (HBSS) containing 50% Matrigel (BD #356234) are injected subcutaneously into the right flank. A total of 5×10^6 cells in 100 μl are injected per animal.
Evaluation of antitumor activity: Treatments are initiated when the mean tumor volumes were approximately 180 mm^3 (14 days post tumor cells injection). Body weights and tumor volumes are recorded twice a week. Tumor volumes are measured with calipers and determined according to the formula length×diameter^2×π/6. In addition to presenting changes of tumor volumes over the course of treatments, antitumor activity is expressed as T/C % (mean change of tumor volume of treated animals/mean change of tumor volume of control animals)×100. Regressions (%) are calculated according to the formula ((mean tumor volume at end of treatment-mean tumor volume at start of treatment)/mean tumor volume at start of treatment)×100.
Preparation of Compound Solutions: Vehicle control is prepared by mixing 250 μl 1-methyl-2-pyrrolidone (“NMP”)(Fluka #69118), 750 μl Polyethylene glycol 300 (“PEG300”)(Fluka, #81162), 500 μl Solutol HS15 (BASF, #51633963) and 1000 μl water.
Statistics: For all tests, the level of significance is set at p<0.05. For tumor volumes, comparisons between treatment groups and vehicle control group are done using one-way ANOVA followed by Dunnett's test. The level of significance of body weight change within a group between the start and the end of the treatment period is determined using a paired t-test. Comparisons of delta body weighs between treatment and vehicle control groups are performed by a one-way ANOVA followed by a post hoc Dunnett's test. Calculations are performed using GraphPad Prism 6 for Windows (GraphPad Software Inc.).
Estimation of drug-drug interaction: an approximation of drug interactions is made using the method described by Clarke R., “Issues in experimental design and endpoint analysis in the study of experimental cytotoxic agents in vivo in breast cancer and other models”, Breast Cancer Res. Treat., 46, 255-78 (1997) (“Clark 1997”). This is applied to ΔTV (Mean tumor volume at the end of the treatment period—mean tumor volume at the beginning of the treatment period).
Upon performance of the foregoing experiment, the results are summarized in the table below: Ten millions RT-112 cells are injected subcutaneously into the right flank of female athymic nude mice on Day 0. On day 14, tumors are measured and mice are randomized into treatment groups with 8 mice per group. […] Statistics on Δ tumor volumes are performed with a one-way ANOVA, post hoc Dunnett's (*p<0.05 vs. vehicle controls) to compare treatment groups against the vehicle control group. For body weights, paired t tests between the weights at the beginning and the end of the treatment period are performed (*p<0.05).
A compound interaction analysis with the method described by Clarke 1997 is conducted. In accordance with this method, the experimental data is interpreted as follows: antagonism is predicted when the calculation AB/C>B/C×A/C, additive interaction is predicted when the calculation AB/C=B/C×A/C, and synergistic when AB/C<B/C×A/C.

[2] = system: pAKT (AKTpS473); assay: Immunohistochemistry of RT112 tumors: pAKT; type: in vivo, female Hsd: Athymic Nude-nu mice; conditions: 7 days, Compound A 50 mg/kg, Compound B 10 mg/kg, 2 hours after last treatment
Procedure: (§1) Animals: Experiments are performed in female Hsd: Athymic Nude-nu mice obtained from Harlan Cpb, Germany. Animals are from 8 to 14 weeks of age at treatment start and housed under Optimized Hygienic Conditions in Makrolon type III cages (max. 10 animals per cage) with free access to food and water
(§2) Establishment of RT112 tumors and compound treatments: The RT112 human urinary bladder carcinoma cell line was initially derived from a patient with untreated primary urinary bladder carcinoma in 1973 (Marshall et al. 1977, Masters et al. 1986). RT112 cells are cultured as in Example 1. Tumor establishment is done as in Example 2. Treatments are initiated when the mean tumor volumes are approximately 240 mm^3 (20 days post tumor cells injection).
(§3) Dissection: 2 hours after the last treatment animals are anaesthetized by Forene inhalation narcosis and euthanized by cervical dislocation. Each tumor is dissected, is cut into two equal pieces and is processed for formalin-fixed paraffin embedded sectioning. […]
(§4) Slides are mounted on a Ventana Discovery XT immunostainer and are processed for automated IHC by using a ChromoMAP kit and an OmniMAP anti Rabbit polymer-based amplification system. […] Endogenous peroxidase activities were subsequently quenched by using the ready to use solution from the ChromoMAP kit. […]

[3] = system: pErk1/2 (pMAPK); assay: Immunohistochemistry of RT112 tumors: pErk1/2 (pMAPK); type: in vivo, female Hsd: Athymic Nude-nu mice; conditions: 7 days, Compound A 50 mg/kg, Compound B 10 mg/kg, 2 hours after last treatment
Procedure: as §1, §2, §3, §4

[4] = system: FGFR kinase receptors 1-4 (FGFR1, FGFR2, FGFR3, and FGFR4); conditions: cited from earlier work
[5] = Compound A 50 mg/kg, Compound B 10 mg/kg, p.o., q24 h, 14 days

| Compound | Mean change of tumor volume [1] | % change of body weight [1, 5] [%] | Regression (%) [1, 5] | Survival (survivors/total) [1, 5] | Mean change of body weight (g ± SEM) ([1]; Compound A 50 mg/kg, Compound B 10 mg/kg, p.o., q24 h, 14 days, *p<0.05 paired t test) [g] | Final Tumor Volume [1] | inhibition of pAKT (immunohistochemistry) [2] | inhibition of pErk1/2 (pMAPK) (immunohistochemistry) [3] | selectivity for FGFR kinase receptors 1-4 [4] | T/C (%) (change in tumor volume, treated vs vehicle) ([1]; 10 mg/kg p.o. q24 h, 14 days, non-statistically significant) | T/C (%) [1, 5] [%] | Mean change of tumor volume (mm^3 ± SEM) ([1]; Compound A 50 mg/kg, Compound B 10 mg/kg, p.o., q24 h, 14 days, *p<0.05 vs vehicle) [mm^3] | ratio to vehicle control (B/C, A/C, AB/C) ([1]; based on Final Tumor Volume) | ratio to vehicle control (B/C, A/C, AB/C) ([1]; based on Mean change of tumor volume) |
| --- | --- | --- | --- | --- | --- | --- | --- | --- | --- | --- | --- | --- | --- | --- |
| Cc1nc(NC(=O)N2CCC[C@H]2C(N)=O)sc1-c1ccnc(C(C)(C)C(F)(F)F)c1 [Compound A, (S)-Pyrrolidine-1,2-dicarboxylic acid 2-amide 1-({4-methyl-5-[2-(2,2,2-trifluoro-1,1-dimethyl-ethyl)-pyridin-4-yl]-thiazol-2-yl}-amide)] | −2 | −0.8 | 1.1% and −1.1% | 8/8 | -0.2 ± 0.4 | 179.4 | strongly inhibits; also recorded: significantly inhibits |  |  |  |  |  |  |  |
| CCN1CCN(c2ccc(Nc3cc(N(C)C(=O)Nc4c(Cl)c(OC)cc(OC)c4Cl)ncn3)cc2)CC1 [Compound B, 3-(2,6-dichloro-3,5-dimethoxy-phenyl)-1-{6-[4-(4-ethylpiperazin-1-l)-phenylamino]-pyrimidin-4-yl}-1-methyl-urea] | 145.6 |  |  | 8/8 |  | 327.2 |  | strongly inhibits; also recorded: significantly inhibits | highly selective | 54.4 | 54.4 | 145.6 ± 66.5 | 0.728 | 0.544 |

— US20160095842A1 (priority 2013, published 2016)
